Laboratory results: patent US11339157B1, “4H-pyrrolo[3,2-c]pyridin-4-one derivatives” (Bayer Aktiengesellschaft, priority 2017, dated 2022)
“And” between values parts separate entries of the source, which are not always exact repeats. Identical values can stand only once. Like-named read-outs stand apart in the source and are kept apart here.

What was measured:
Ba/F3-EGFR-WT cells = test: Proliferation assay in BA/F3 (wild type) cells (Cell Titer-Glo); type: cell-based; settings: Mus musculus
In short: (§1)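 Ba/F3 cells stably expressing retrovirally transduced EGFR-WT or EGFR-insSVD; WT cells plated with 10 ng/mL EGF, insSVD cells without EGF. Compound exposure 48 h at 37° C; viability read by CellTiter-Glo luminescence.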

Bub1 = Bub1 (Homo sapiens (Human), UniProt O43683); test: Bub1 kinase assay (TR-FRET, 10 μM ATP); type: biochemical; settings: mean, read-out: Bub1 kinase assay IC50 [mol/l] (mean)
From the text: Bub1-inhibitory activities of compounds described in the present invention were quantified using a time-resolved fluorescence energy transfer (TR-FRET) kinase assay which measures phosphorylation of the synthetic peptide Biotin-Ahx-[…]—SEQ ID NO: 5 (C-terminus in amide form), purchased from e.g. Biosyntan (Berlin, Germany) by the (recombinant) catalytic domain of human Bub1 (amino acids 704-1085), expressed in Hi5 insect cells with an N-terminal His6-tag (SEQ ID NO: 9) and purified by affinity-(Ni-NTA) and size exclusion chromatography.
In a typical assay 11 different concentrations of each compound (0.1 nM, 0.33 nM, 1.1 nM, 3.8 nM, 13 nM, 44 nM, 0.15 μM, 0.51 μM, 1.7 μM, 5.9 μM and 20 μM) were tested in duplicate within the same microtiter plate. To this end, 100-fold concentrated compound solutions (in DMSO) were previously prepared by serial dilution (1:3.4) of 2 mM stocks in a clear low volume 384-well source microtiter plate (Greiner Bio-One, Frickenhausen, Germany), from which 50 nl of compounds were transferred into a black low volume test microtiter plate from the same supplier. […] The resulting mixture (5 μl final volume) was incubated at 22° C. during 60 min., and the reaction was stopped by the addition of 5 μl of an aqueous EDTA-solution (50 mM EDTA, in 100 mM HEPES pH 7.5 and 0.2% (w/v) bovine serum albumin) which also contained the TR-FRET detection reagents (0.2 μM streptavidin-XL665 [Cisbio Bioassays, Codolet, France] and 1 nM anti-phosho-Serine antibody [Merck Millipore, cat. #35-002] and 0.4 nM LANCE EU-W1024 labeled anti-mouse IgG antibody [Perkin-Elmer, product no. AD0077, alternatively a Terbium-cryptate-labeled anti-mouse IgG antibody from Cisbio Bioassays can be used]). The stopped reaction mixture was further incubated 1 h at 22° C. in order to allow the formation of complexes between peptides and detection reagents. Subsequently, the amount of product was evaluated by measurement of the resonance energy transfer from the Eu-chelate-antibody complex recognizing the Phosphoserine residue to the streptavidin-XL665 bound to the biotin moiety of the peptide. To this end, the fluorescence emissions at 620 nm and 665 nm after excitation at 330-350 nm were measured in a TR-FRET plate reader, e.g. a Rubystar or Pherastar (both from BMG Labtechnologies, Offenburg, Germany) or a Viewlux (Perkin-Elmer) and the ratio of the emissions (665 nm/[…]) was taken as indicator for the amount of phosphorylated substrate. The data were normalised using two sets of control wells for high-(=enzyme reaction without inhibitor=0%=Minimum inhibition) and low-(=all assay components without enzyme=100%=Maximum inhibition) Bub1 activity. IC50 values were calculated by fitting the normalized inhibition data to a 4-parameter logistic equation (Minimum, Maximum, IC50, Hill; Y=Max+(Min−Max)/(1+(X/IC50)Hill)).

Ba/F3-EGFR-insSVD cells = test: Proliferation assay in BA/F3 (ins SVD) cells (Cell Titer-Glo); type: cell-based
In short: as §1

[1] = biological target: EGFR ins SVD (insertion of SVD between D770 and N771) (Homo sapiens, UniProt P00533, INS767SVD); test: Exon 20-Mutant-EGFR(D770_N771insSVD) kinase assay (TR-FRET); type: biochemical
Protocol: Exon 20-Mutant-EGFR(D770_N771insSVD) Kinase Assay
Inhibitory activity of compounds of the present invention against an Epidermal Growth Factor Receptor (EGFR) with an insertion of the amino acids sequence SVD between D770 and N771 was quantified employing the TR-FRET based kinase activity assay as described in the following paragraphs.
For the assay 50 nl of a 100-fold concentrated solution of the test compound in DMSO was pipetted into either a black low volume 384 well microtiter plate or a black 1536 well microtiter plate (both Greiner Bio-One, Frickenhausen, Germany), 2 μl of a solution of EGFR in aqueous assay buffer [50 mM Hepes pH 7.0, 10 mM MgCl2, 1 mM dithiothreitol, 0.5 mM EGTA, 0.3 mM activated sodium ortho-vanadate, 0.005% (w/v) bovine serum albumin, 0.005% (v/v) Tween-20] were added and the mixture was incubated for 15 min at 22° C. to allow pre binding of the test compounds to the enzyme before the start of the kinase reaction. […] The concentration of EGFR was adjusted depending of the activity of the enzyme lot and was chosen appropriate to have the assay in the linear range, typical concentration was 15 pg/μl. The reaction was stopped by the addition of 3 μl of a solution of HTRF detection reagents (83.3 nM streptavidine-XL665 [Cisbio Bioassays, Codolet, France] and 1.67 nM PT66-Tb-Cryptate, a terbium-cryptate labelled anti-phospho-tyrosine antibody from Cisbio Bioassays [instead of the PT66 Tb cryptate PT66 Eu Chelate from Perkin Elmer can also be used]) in an aqueous EDTA-solution (133.3 mM EDTA, 0.2% (w/v) bovine serum albumin in 50 mM HEPES pH 7.5).
(§2) The resulting mixture was incubated 1 h at 22° C. to allow the binding of the biotinylated phosphorylated peptide to the streptavidine-XL665 and the PT66-Tb-Cryptate. Subsequently the amount of phosphorylated substrate was evaluated by measurement of the resonance energy transfer from the PT66-Tb-Cryptate to the streptavidine-XL665.

[2] = biological target: EGFR ins ASV (insertion of ASV between V769 and D770); test: Exon 20-Mutant-EGFR(V769_D770insASV) kinase assay (TR-FRET); type: biochemical, human; settings: 2 mM ATP
Protocol: Exon 20-Mutant-EGFR(V769_D770insASV) Kinase Assay
Inhibitory activity of compounds of the present invention against an Epidermal Growth Factor Receptor (EGFR) with an insertion of the amino acids sequence ASV between V769 and D770 was quantified employing the TR-FRET based kinase activity assay as described in the following paragraphs.
For the assay 50 nl of a 100-fold concentrated solution of the test compound in DMSO was pipetted into either a black low volume 384well microtiter plate or a black 1536 well microtiter plate (both Greiner Bio-One, Frickenhausen, Germany), 2 μl of a solution of EGFR in aqueous assay buffer [50 mM Hepes pH 7.0, 10 mM MgCl2, 1 mM dithiothreitol, 0.5 mM EGTA, 0.3 mM activated sodium ortho-vanadate, 0.005% (w/v) bovine serum albumin, 0.005% (v/v) Tween-20] were added and the mixture was incubated for 15 min at 22° C. to allow pre binding of the test compounds to the enzyme before the start of the kinase reaction. […] The concentration of EGFR was adjusted depending of the activity of the enzyme lot and was chosen appropriate to have the assay in the linear range, typical concentration was 2.5 pg/μl. The reaction was stopped by the addition of 3 μl of a solution of HTRF detection reagents (83.3 nM streptavidine-XL665 [Cisbio Bioassays, Codolet, France] and 1.67 nM PT66-Tb-Cryptate, an terbium-cryptate labelled anti-phospho-tyrosine antibody from Cisbio Bioassays [instead of the PT66 Tb cryptate PT66 Eu Chelate from Perkin Elmer can also be used]) in an aqueous EDTA-solution (133.3 mM EDTA, 0.2% (w/v) bovine serum albumin in 50 mM HEPES pH 7.5).
as §2

[3] = BaF3, 48 h, Table 10, plated with 10 ng/mL EGF
[4] = Mus musculus, BaF3, 48 h, Table 10, plated without EGF
[5] = BaF3, Table 10, plated with 10 ng/mL EGF, 48 h
[6] = 2 mM ATP, mean, read-out: EGFR ins SVD IC50 [mol/l] (mean)
[7] = Table 9, read-out: mutEGFR (D770_N771insSVD) kinase assay IC50
[8] = Mus musculus, BaF3, Table 10, plated without EGF, 48 h

Bub1, sequence (O43683 704-1085): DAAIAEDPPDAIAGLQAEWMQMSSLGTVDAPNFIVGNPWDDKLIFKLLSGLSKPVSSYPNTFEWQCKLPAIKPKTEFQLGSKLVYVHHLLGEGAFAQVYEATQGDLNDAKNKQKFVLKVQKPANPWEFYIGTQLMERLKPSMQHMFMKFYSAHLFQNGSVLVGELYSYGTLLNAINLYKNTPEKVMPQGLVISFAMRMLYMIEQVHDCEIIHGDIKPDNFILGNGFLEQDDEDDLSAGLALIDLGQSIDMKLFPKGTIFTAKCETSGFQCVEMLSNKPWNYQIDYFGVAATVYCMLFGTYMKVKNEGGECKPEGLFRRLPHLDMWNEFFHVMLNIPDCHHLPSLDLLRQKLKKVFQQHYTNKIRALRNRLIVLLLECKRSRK
EGFR ins SVD (insertion of SVD between D770 and N771), sequence (P00533 with tags, fused parts or gaps INS767SVD limits assumed): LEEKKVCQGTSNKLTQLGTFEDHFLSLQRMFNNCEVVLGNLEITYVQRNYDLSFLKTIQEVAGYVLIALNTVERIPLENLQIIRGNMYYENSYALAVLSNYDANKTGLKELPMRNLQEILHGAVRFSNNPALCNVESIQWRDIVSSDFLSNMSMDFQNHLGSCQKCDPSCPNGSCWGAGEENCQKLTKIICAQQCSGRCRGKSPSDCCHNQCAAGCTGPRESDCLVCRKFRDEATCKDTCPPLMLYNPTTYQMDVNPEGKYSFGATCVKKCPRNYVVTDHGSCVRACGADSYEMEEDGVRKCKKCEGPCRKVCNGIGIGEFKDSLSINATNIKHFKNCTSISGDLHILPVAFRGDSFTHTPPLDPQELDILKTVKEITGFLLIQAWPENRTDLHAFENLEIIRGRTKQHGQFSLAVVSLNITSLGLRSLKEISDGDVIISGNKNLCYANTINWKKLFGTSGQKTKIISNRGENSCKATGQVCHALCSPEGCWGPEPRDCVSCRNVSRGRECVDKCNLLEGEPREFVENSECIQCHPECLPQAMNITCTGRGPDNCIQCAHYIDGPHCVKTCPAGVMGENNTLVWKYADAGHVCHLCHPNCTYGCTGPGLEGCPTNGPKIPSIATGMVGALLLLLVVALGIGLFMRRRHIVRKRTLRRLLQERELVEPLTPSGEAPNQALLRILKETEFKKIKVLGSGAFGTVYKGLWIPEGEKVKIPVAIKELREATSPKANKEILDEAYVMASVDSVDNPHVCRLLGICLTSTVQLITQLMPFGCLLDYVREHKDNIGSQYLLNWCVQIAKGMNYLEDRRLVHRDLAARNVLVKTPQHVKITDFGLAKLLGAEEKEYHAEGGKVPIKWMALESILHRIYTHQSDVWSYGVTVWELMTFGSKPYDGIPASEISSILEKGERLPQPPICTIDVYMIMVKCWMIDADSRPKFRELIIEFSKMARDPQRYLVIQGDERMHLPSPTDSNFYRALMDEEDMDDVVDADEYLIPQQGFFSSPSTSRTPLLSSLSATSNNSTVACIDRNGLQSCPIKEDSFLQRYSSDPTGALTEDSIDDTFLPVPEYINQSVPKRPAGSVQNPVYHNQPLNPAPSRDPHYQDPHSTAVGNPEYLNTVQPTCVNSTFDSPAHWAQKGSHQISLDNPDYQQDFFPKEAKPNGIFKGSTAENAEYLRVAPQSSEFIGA

Row | SMILES | IC50 (Ba/F3-EGFR-WT cells; [3]) [nM] | IC50 (Bub1) [nM] | IC50 (Ba/F3-EGFR-insSVD cells; [4]) [nM] | IC50 (Ba/F3-EGFR-insSVD cells; Table 10, plated without EGF, 48 h) | IC50 (Ba/F3-EGFR-WT cells; [5]) [nM] | IC50 [1, 6] [nM] | IC50 [1, 7] | EGFR ins ASV IC50 [mol] (mean) [2] | IC50 (Ba/F3-EGFR-insSVD cells; [8]) [nM]
1 | CC(C)(C)CCOc1cnccc1-c1[nH]c2c(c1Nc1cccc(F)c1)C(=O)NCC2 [Example 2, 2-[3-(3,3-dimethylbutoxy)pyridin-4-yl]-3-[(3-fluorophenyl)amino]-1,5,6,7-tetrahydro-4H-pyrrolo[3,2-c]pyridin-4-one] | 1870 | 44.1 | 6.8 | 7.49 nM and 8.81 nM and 7.48 nM and < 4.78 nM |  |  |  |  | 
2 | O=C1NCCc2[nH]c(-c3ccncc3OCc3ccccc3)c(Nc3cccc(F)c3)c21 [Example 3, 2-[3-(benzyloxy)pyridin-4-yl]-3-[(3-fluorophenyl)amino]-1,5,6,7-tetrahydro-4H-pyrrolo[3,2-c]pyridin-4-one] |  | 47.6 |  |  | 2160 | 0.28 | 0.28 nM | 6.85e-09 | 587
3 | CC(C)(O)COc1cnccc1-c1[nH]c2c(c1Nc1cccc(F)c1)C(=O)NCC2 [Example 4, 3-[(3-fluorophenyl)amino]-2-[3-(2-hydroxy-2-methylpropoxy)pyridin-4-yl]-1,5,6,7-tetrahydro-4H-pyrrolo[3,2-c]pyridin-4-one] | 1610 | 12.5 | 329 |  |  | < 0.072 | < 0.0725 nM | 1.31e-10 | 
4 | CN(C)CCOc1cnccc1-c1[nH]c2c(c1Nc1cccc(F)c1)C(=O)NCC2 [Example 5, 2-{3-[2-(dimethylamino)ethoxy]pyridin-4-yl}-3-[(3-fluorophenyl)amino]-1,5,6,7-tetrahydro-4H-pyrrolo[3,2-c]pyridin-4-one] |  | 32.4 | 567 |  |  | 1.56 | 1.56 nM | 4.31e-09 | 
5 | COC(C)(C)COc1cnccc1-c1[nH]c2c(c1Nc1cccc(F)c1)C(=O)NCC2 [Example 6, 3-[(3-fluorophenyl)amino]-2-[3-(2-methoxy-2-methylpropoxy)pyridin-4-yl]-1,5,6,7-tetrahydro-4H-pyrrolo[3,2-c]pyridin-4-one] | 394 | 26.9 | 63.3 |  |  | < 0.072 | < 0.0725 nM (2×) and 0.104 nM and 0.0949 nM | 2.12e-10 | 
6 | CC(C)(COc1cnccc1-c1[nH]c2c(c1Nc1cccc(F)c1)C(=O)NCC2)N1CCOCC1 [Example 7, 3-[(3-fluorophenyl)amino]-2-{3-[2-methyl-2-(morpholin-4-yl)propoxy]pyridin-4-yl}-1,5,6,7-tetrahydro-4H-pyrrolo[3,2-c]pyridin-4-one] |  | 397 |  |  | 2700 | 0.718 | 1.13 nM |  | 462
7 | CN1CCC[C@H]1COc1cnccc1-c1[nH]c2c(c1Nc1cccc(F)c1)C(=O)NCC2 [Example 8, 3-[(3-fluorophenyl)amino]-2-(3-{[(2S)-1-methylpyrrolidin-2-yl]methoxy}pyridin-4-yl)-1,5,6,7-tetrahydro-4H-pyrrolo[3,2-c]pyridin-4-one] |  | 65.8 |  |  | 623 | 0.31 | 0.324 nM |  | 69.5
8 | COCCOc1cnccc1-c1[nH]c2c(c1Nc1cc(F)cc(F)c1)C(=O)NCC2 [Example 9, 3-[(3,5-difluorophenyl)amino]-2-[3-(2-methoxyethoxy)pyridin-4-yl]-1,5,6,7-tetrahydro-4H-pyrrolo[3,2-c]pyridin-4-one] | 376 | 27.2 | 121 |  |  | < 0.072 | 0.36 nM and 0.388 nM and 0.0776 nM and < 0.0725 nM and 0.1 nM and 0.0962 nM and 0.196 nM and 0.206 nM | 6.15e-09 | 
9 | COC(C)(C)COc1cnccc1-c1[nH]c2c(c1Nc1cc(F)cc(F)c1)C(=O)NCC2 [Example 10, 3-[(3,5-difluorophenyl)amino]-2-[3-(2-methoxy-2-methylpropoxy)pyridin-4-yl]-1,5,6,7-tetrahydro-4H-pyrrolo[3,2-c]pyridin-4-one] | 352 | 12.4 | 56.9 |  |  | < 0.072 | < 0.0725 nM (4×) and 0.133 nM |  | 
10 | COCCOc1cnccc1-c1[nH]c2c(c1Nc1ccccc1OC(F)F)C(=O)NCC2 [Example 11, 3-{[2-(difluoromethoxy)phenyl]amino}-2-[3-(2-methoxyethoxy)pyridin-4-yl]-1,5,6,7-tetrahydro-4H-pyrrolo[3,2-c]pyridin-4-one] | 1780 | 192 | 357 |  |  | 0.22 | 0.292 nM | 4.25e-09 | 
11 | COCCOc1cnccc1-c1[nH]c2c(c1Nc1cccc(F)c1Br)C(=O)NCC2 [Example 12, 3-[(2-bromo-3-fluorophenyl)amino]-2-[3-(2-methoxyethoxy)pyridin-4-yl]-1,5,6,7-tetrahydro-4H-pyrrolo[3,2-c]pyridin-4-one] |  |  |  |  |  | 0.0857 | 0.0857 nM | 2.18e-10 | 
12 | COCCOc1cnccc1-c1[nH]c2c(c1Nc1ccccc1OC(F)(F)F)C(=O)NCC2 [Example 14, 2-[3-(2-methoxyethoxy)pyridin-4-yl]-3-{[2-(trifluoromethoxy)phenyl]amino}-1,5,6,7-tetrahydro-4H-pyrrolo[3,2-c]pyridin-4-one] | 2530 | 704 | 1040 |  |  |  |  |  | 
13 | COCCOc1cnccc1-c1[nH]c2c(c1Nc1cccc(F)c1OC)C(=O)NCC2 [Example 16, 3-[(3-fluoro-2-methoxyphenyl)amino]-2-[3-(2-methoxyethoxy)pyridin-4-yl]-1,5,6,7-tetrahydro-4H-pyrrolo[3,2-c]pyridin-4-one] | 454 | 145 | 24.1 |  |  |  |  |  | 
14 | COCCOc1cnccc1-c1[nH]c2c(c1Nc1cccc(F)c1OC(F)F)C(=O)NCC2 [Example 18, 3-{[2-(difluoromethoxy)-3-fluorophenyl]amino}-2-[3-(2-methoxyethoxy)pyridin-4-yl]-1,5,6,7-tetrahydro-4H-pyrrolo[3,2-c]pyridin-4-one] |  | 375 |  |  |  |  |  |  | 
15 | COCCOc1cnccc1-c1[nH]c2c(c1Nc1cccc(F)c1CC(F)F)C(=O)NCC2 [Example 22, 3-{[2-(2,2-difluoroethyl)-3-fluorophenyl]amino}-2-[3-(2-methoxyethoxy)pyridin-4-yl]-1,5,6,7-tetrahydro-4H-pyrrolo[3,2-c]pyridin-4-one] | 1560 | 111 | 116 |  |  |  |  |  | 
16 | COC(C)(C)COc1cnccc1-c1[nH]c2c(c1Nc1cccc(F)c1O)C(=O)NCC2 [Example 24, 3-[(3-fluoro-2-hydroxyphenyl)amino]-2-[3-(2-methoxy-2-methylpropoxy)pyridin-4-yl]-1,5,6,7-tetrahydro-4H-pyrrolo[3,2-c]pyridin-4-one] |  |  |  |  |  | 0.541 | 0.541 nM | 6.34e-10 | 
17 | CCOc1c(F)cccc1Nc1c(-c2ccncc2OCCOC)[nH]c2c1C(=O)NCC2 [Example 25, 3-[(2-ethoxy-3-fluorophenyl)amino]-2-[3-(2-methoxyethoxy)pyridin-4-yl]-1,5,6,7-tetrahydro-4H-pyrrolo[3,2-c]pyridin-4-one] | 2280 | 228 |  |  |  |  |  |  | 
18 | COc1c(Nc2c(-c3ccncc3OCC(C)(C)OC)[nH]c3c2C(=O)NCC3)ccc(F)c1F [Example 29, 3-[(3,4-difluoro-2-methoxyphenyl)amino]-2-[3-(2-methoxy-2-methylpropoxy)pyridin-4-yl]-1,5,6,7-tetrahydro-4H-pyrrolo[3,2-c]pyridin-4-one] | 2360 | 201 | 229 |  |  |  |  |  | 
